From US7803832B2, “N-(1-arylpyrazol-4L)sulfonamides and their use as parasiticides” (Pfizer Inc., priority 2004, dated 2010)

tested on: Ctenocephalides felis (cat flea); assay: flea membrane feed test; details: in vitro membrane feed; adult fleas fed 2 hours on citrated dog blood containing compound, stored overnight, percentage of fleas killed; dose responses repeated n=5
Protocol: The flea membrane feed test is used to measure the biological activities of the compounds claimed. The assay involves in vitro testing against Ctenocephalides felis conducted according to the following general procedure.
Fleas are cultured in vitro using dog blood. 25-30 adult Ctenocephalides felis (cat flea) were collected and placed in a test chamber (50 ml polystyrene tube with fine nylon mesh sealing the end). Citrated dog blood was prepared by adding aqueous sodium citrate solution (10 ml, 20% w/v, 20 g sodium citrate in 100 ml water) to dog blood (250 ml). Test compounds were dissolved in dimethylsulfoxide to give a working stock solution of 4 mg/ml. The stock solution (12.5 μl) was added to citrated dog blood (5 ml) to give an initial test concentration of 10 μg/ml. For testing at 30 μg/ml, working stock solutions of 12 mg/ml were prepared.
Citrated dog blood containing the test compound (5 ml, 10 μg/ml) was placed into a plastic Petri dish lid, which was kept at 37° C. on a heated pad. Parafilm was stretched over the open top to form a tight membrane for the fleas to feed through. The test chamber containing the fleas was placed carefully onto the parafilm membrane and the fleas commenced feeding.
The fleas were allowed to feed for 2 hours and the test chambers were then removed and stored overnight at room temperature.
The fleas were observed and the percentage of fleas killed recorded. Compounds were initially tested at 10 μg/ml, wherefrom relevant dose responses (100, 30, 10, 3, 1, 0.3, 0.1 μg/ml) were conducted and repeated n=5. Data was plotted to generate ED80, ED90 & ED95 values.

SMILES | Flea feed ED80 results
CS(=O)(=O)N(c1c(C#N)nn(-c2c(Cl)cc(C(F)(F)F)cc2Cl)c1N)S(=O)(=O)c1ccc(F)cc1F [Example 84, N-{5-amino-3-cyano-1-[2,6-dichloro-4-(trifluoromethyl)phenyl]-1H-pyrazol-4-yl}-2,4-difluoro-N-(methylsulfonyl)benzenesulfonamide] | 3 µg/mL
CN(c1cn(-c2c(Cl)cc(C(F)(F)F)cc2Cl)nc1C#N)S(=O)(=O)C(F)(F)F [Example 27, N-{3-cyano-1-[2,6-dichloro-4-(trifluoromethyl)phenyl]-1H-pyrazol-4-yl}-1,1,1-trifluoro-N-methyl methanesulfonamide] | 0.1 µg/mL
CS(=O)(=O)N(CC#N)c1c(C#N)nn(-c2c(Cl)cc(C(F)(F)F)cc2Cl)c1N [Example 5, N-{5-amino-3-cyano-1-[2,6-dichloro-4-(trifluoromethyl)phenyl]-1H-pyrazol-4-yl}-N-(cyanomethyl)methanesulfonamide] | 1 µg/mL
